In PMC8829872 (Cancer chemotherapy and pharmacology, 2022):
Read-outs that look alike come from different tables or passages of the source.

Key:
[1] = Intestinal contribution to oral bioavailability (hepatic and gut contributions calculated from IV PK); assay type: in vivo, mice; conditions: 10 mg/kg IV
Method: The contribution of gut to oral bioavailability was estimated by calculating the contribution of liver processes to bioavailability from IV data and stripping this contribution from the observed bioavailabilities. Assuming IV drug clearance was restricted to hepatic processes, the predicted bioavailability based solely on liver processes, FH, was calculated from IV PK. […] Fe was derived from the amount of drug measured in urine (Ae) and the total amount of drug administered, see Eq. (7). ClBlood was defined by multiplying the observed plasma clearance (Clplasma) by the ratio of plasma exposure (AUCplasma) to total blood exposure (AUCBlood), see Eq. (8). AUCBlood was calculated using hematocrit (HCT) to construct total blood exposure contributions from exposure in RBC (AUCRBC) and plasma, see Eq. (9).

[2] = in vivo; conditions: Balb/c, mouse
Method: (§1) The vehicle for all groups was 10% DMSO, 40% propylene glycol, and 50% dH2O. […] Mice were euthanized by CO2 inhalation and the following tissues collected: blood, liver, kidney, lung, skeletal muscle, and brain.
(§2) Duplicate standard curves with calibrators consisting of 0.3, 1, 3, 10, 30 100, 300, and 1,000 ng/mL, in addition to blank plasma, were prepared fresh on days of analysis using control Balb/c mouse plasma (Innovative Research, Novi, MI). QCs were prepared in bulk and stored at −80 °C, with concentrations of 0.8 (QCL), 20 (QCM), and 800 ng/mL (QCH). […] The injection volume was 3 μL. […] Curve fitting was accomplished through linear regression with 1/y^2 weighting. Semi-quantitation of metabolites was accomplished by reporting IS normalized metabolite response.
(§3) Noncompartmental (NC) PK was determined using GraphPad Prism (San Diego, CA) using the linear trapezoidal method and Bailer method of AUC determination for estimates of exposure in plasma, RBC, tumors, and tissues [24]. PK parameters or analysis requiring dose were adjusted for the actual dose as determined using measurements of dosing solution. Dose-normalized plasma exposures, Cmax and AUC, of PO treated groups of the dose linearity studies were compared using ANOVA tests to determine dose linearity.
(§4) Tissue partition coefficients (PTissue) and RBC partitioning (PRBC) were calculated using Eq. (1) and tested among PO treated groups using ANOVA tests.
(§5) The resulting concentrations were multiplied by the volume or weight to convert to a total amount and then divided by 3 to account for the number of mice per cage. These amounts were then divided by the average total amount of drug administered to calculate the percent excreted by urine and feces, see Eq. (2). Renal clearance (ClR) was calculated by dividing the excreted amount by the plasma AUC, see Eq. (3) [25].
(§6) When available, plasma metabolite data was used to determine semi-quantitative exposure as well as metabolic ratios, using Eq. (4). The MR among PO treated groups in the dose linearity studies were compared using ANOVA testing. Metabolite presence was also analyzed in urine and feces.

[3] = generally reported, cited from earlier work
[4] = mouse, in vivo
Method: as §1, §2, §3, §4, §5, §6

[5] = system: human liver microsomes (HLMs); conditions: cited from earlier work
[6] = Unified compartmental PK model (ADAPT5); set-up: species or system mice; conditions: for bioavailability: Balb/c, mouse, plasma, read-out: Model F (compartmental bioavailability)
Method: A unified compartmental PK model was developed using ADAPT5 [28] to fit the data, […]. Naïve-pooled concentration-time data from each study was used to estimate PK parameters that were shared between each treatment group. Model performance was determined and reported using parameter CV%, R^2, AIC (Akaike information criterion), as well as visually inspected with standardized residual plots. […] The amount of drug ultimately collected in this compartment allowed for calculation of the bioavailability. The developed model was then used to simulate expected plasma concentrations in the extensive PK study. Separately, tumor and plasma time concentration data from the extensive PK study was used to extend this model to add an uncoupled tumor compartment.

[7] = cited from earlier work; for dose proportionality in exposure: single agent
[8] = 1 h after 25 mg/kg IP; cited from earlier work
[9] = extensive PK study, model with uncoupled tumor compartment
[10] = non-linear model, dose linearity and bioavailability studies

C[C@@H]1COCCN1c1cc(C2([S@](C)(=N)=O)CC2)nc(-c2cc[nH]c3nccc2-3)n1 [AZD6738]
ClBlood [1]: 0.550 mL/min | Amount excreted, Ae ([1]; urine): 4.00 µg | Fraction excreted, Fe ([1]; urine): 0.0191 | clearance ([1]; Balb/c, plasma, average mouse size 18.3 g, read-out: ClPlasma): 0.634 mL/min | half-life [2]: 1.57 to 2.17 h | AUC(0-inf) ([2]; iv, 10 mg/kg): 5620 ng·h/mL | CL renal ([2]; iv, 10 mg/kg): 0.661 mL/min/kg | Cmax ([2]; iv, 10 mg/kg): 7040 ng/mL | Tmax ([2]; iv, 10 mg/kg): 0.0833 h | Vd ([2]; iv, 10 mg/kg): 4.92 L/kg | half-life ([2]; iv, 10 mg/kg): 1.64 h | AUC(0-inf) ([2]; po, 2 mg/kg): 423 ng·h/mL | CL renal ([2]; po, 2 mg/kg): 1.97 mL/min/kg | Cmax ([2]; po, 2 mg/kg): 160 ng/mL | Tmax ([2]; po, 2 mg/kg): 1 h | bioavailability ([2]; po, 2 mg/kg): 45.7% | half-life ([2]; po, 2 mg/kg): 1.73 h | AUC(0-inf) ([2]; po, 7.5 mg/kg): 2400 ng·h/mL | CL renal ([2]; po, 7.5 mg/kg): 1.88 mL/min/kg | Cmax ([2]; po, 7.5 mg/kg): 1460 ng/mL | Tmax ([2]; po, 7.5 mg/kg): 0.25 h | bioavailability ([2]; po, 7.5 mg/kg): 58.8% | half-life ([2]; po, 7.5 mg/kg): 2.17 h | AUC(0-inf) ([2]; po, 20 mg/kg): 9630 ng·h/mL | CL renal ([2]; po, 20 mg/kg): 1.53 mL/min/kg | Cmax ([2]; po, 20 mg/kg): 4960 ng/mL | Tmax ([2]; po, 20 mg/kg): 0.25 h | bioavailability ([2]; po, 20 mg/kg): 85.5% | half-life ([2]; po, 20 mg/kg): 1.57 h | AUC(0-inf) ([2]; po, 75 mg/kg): 41600 ng·h/mL | CL renal ([2]; po, 75 mg/kg): 1.14 mL/min/kg | Cmax ([2]; po, 75 mg/kg): 12000 ng/mL | Tmax ([2]; po, 75 mg/kg): 0.25 h | bioavailability ([2]; po, 75 mg/kg): 95.2% | half-life ([2]; po, 75 mg/kg): 1.93 h | cell based IC50s [3]: below 413 ng/mL | IC50 ([3]; read-out: cell based IC50s): < 1000 nM | Renal excretion of unaltered drug ([4]; Balb/c): < 4 % of dose | decrease of apparent clearance (Cl/F/kg) ([4]; Balb/c, po): approximately 50% | decrease of apparent volume of distribution (Vd/F/kg) ([4]; Balb/c, po): approximately 50% | excreted unchanged in the feces ([4]; Balb/c, po): 9.2-15.7 % of dose | Cl ([4]; Balb/c, po, 2 mg/kg): 75.7 mL/min/kg | Vd ([4]; Balb/c, po, 2 mg/kg): 11.4 L/kg | Cl ([4]; Balb/c, po, 7.5 mg/kg): 58.8 mL/min/kg | Vd ([4]; Balb/c, po, 7.5 mg/kg): 11.0 L/kg | Cl ([4]; Balb/c, po, 20 mg/kg): 40.4 mL/min/kg | Vd ([4]; Balb/c, po, 20 mg/kg): 5.50 L/kg | Cl ([4]; Balb/c, po, 75 mg/kg): 36.3 mL/min/kg | Vd ([4]; Balb/c, po, 75 mg/kg): 6.06 L/kg | Partitioning to lung, PO groups compared to the IV group [4]: approximately two-fold higher | Penetration into the brain [4]: limited | enzymes of oxidative deimination to the primary sulfoxide metabolite [5]: CYP2C8/2J2 | bioavailability ([6]; 2 mg/kg PO): 40.4% | bioavailability ([6]; 7.5 mg/kg PO): 61.5% | bioavailability ([6]; 20 mg/kg PO): 80.4% | bioavailability ([6]; 75 mg/kg PO): 90.8% | Ka (fixed to dose linearity model estimate) [6, 9]: 0.234 min⁻¹ | Kct (model estimate) [6, 9]: 0.325 min⁻¹ | Ktc (model estimate) [6, 9]: 0.0537 min⁻¹ | Vc (model estimate) [6, 9]: 5.04 L/kg | Ka (model estimate) [6, 10]: 0.234 min⁻¹ | Km (model estimate, pre-systemic saturable efflux/metabolism) [6, 10]: 157 ng | Kna (model estimate) [6, 10]: 0.0120 min⁻¹ | Vc (model estimate) [6, 10]: 1.91 L/kg | Vmax (model estimate, pre-systemic saturable efflux/metabolism) [6, 10]: 1238 ng/min | Vp (model estimate) [6, 10]: 2.61 L/kg | dose proportionality ([7]; BID with olaparib and durvalumab, 60 to 240 mg): dose proportionality | dose limiting toxicity (DLT) ([7]; clinical studies): thrombocytopenia | concentration at which monocyte and thrombocyte decreases occurred (PK-PD model) ([7]; clinical, increased up to 10 μg/mL): 2500 ng/mL | dose proportionality in exposure ([7]; 20 to 40 mg BID): greater than proportional increases | dose proportionality in exposure ([7]; 80 to 240 mg BID): approximate dose proportionality | brain concentration [8]: ~200 ng/mL
